For data set [1], the system named is DENV-2 viral replicon. To be noted: for TTI, tissue culture therapeutic index (CC50/EC50): DENV replicon BHK cells. On the technique in general: In antiviral work, replicon cells carry a viral genome segment that copies itself.
For data set [2], the system named is DENV-2 viral replicon. As to the kind of experiment: microbe, parasite or virus in culture. The conditions noted are these: Dengue virus, DENV2, BHK, 72 h.
In data set [3] the test system is DENV replicon cells (BHK). As to the kind of experiment: Cell viability assay (MTS) in DENV replicon cells. To be noted: for CC50: DENV replicon BHK cells, MTS, 72 h.
The next data set deals with DENV. As to the kind of experiment: DENV titer reduction assay in Huh-7 cells, dose-response. It is filed as cell-based. The conditions noted are these: Dengue virus.
The next data set has as its system DENV replicon. Format: cell-based, Dengue virus (DENV). To be noted: for antiviral activity of nucleobase alone: 0.6 μM nucleobase, without 6-MMPR; for antiviral (anti-replicon) activity when supplemented with 6-MMPR: nucleobase supplemented with 0.01 μM 6-MMPR.
A short description of data set [4]: Cell viability assay (MTS) in DENV replicon cells. The conditions noted are these: hamster.
A further data set has as its system ZIKV. As to the kind of experiment: Potentiation in replication-competent ZIKV titer reduction assay using Huh-7 cells. The conditions noted are these: 0.1 μM 6-MMPR, infectious virus titer.
The test system of another data set is DENV 2. As to the kind of experiment: Potentiation in replication-competent DENV assay using Huh-7 cells (plaque assay, MacSynergy II). The conditions noted are these: for synergy/potentiation with 6-MMPR for reduction in DENV replication: Huh7 cells, 0.1 μM 6-MMPR, infectious virus titer (FIG. 9); for potentiation/synergy with 6-MMPR of anti-DENV activity: Huh-7 cells, matrix of 6-MMPR and T-1105, infectious virus titer (FIG. 6).

The next data set concerns HCoV-OC43. As to the kind of experiment: Potentiation against HCoV-OC43 in Huh7 cells. Format: cell-based, human betacoronavirus OC43. To be noted: HCoV-OC43, combination with 6-MMPR, MacSynergy; listed as favipiravir. As to the method: HCoV-OC43. Huh7 cells were 12,500 Huh7 cells were seeded in a 96 well plate. Next day, the cells were inoculated with OC43 virus at a MOI (multiplicity of infection) of 0.5 for two hours. Next, the inoculum was removed and cells were treated with different combinations of 6MMPr and T-705 or remdesivir 1 μM (RDV) as positive control. Three wells per treatment were used. Cells were incubated for 5 days. Infected and treated cells were analyzed for cell viability by MTS and absorbance was measured at 490 nm.

Another data set deals with IAV. As to the kind of experiment: Protection of Huh7 cells from IAV-induced cytopathic effects (MTS). Format: cell-based, influenza A virus.
Data set [5] in a line: Safety of the combination in DENV mouse model. Format: in vivo. The conditions noted are these: health of the mice / body weight. On the procedure: The mice were treated with Vehicle, the combination T-1105 (3a)+6-MMPR, 1105 only, and PBS. Viral genomes were detected and quantitated by RT-qPCR at 2 or 4 days post infection. […] These studies help predict a safe dose and timing of administration of the combination of favipiravir (T705) and 6-MMPR to treat RNA virus infections, such as SARS-CoV-2.

The mark [6] stands for this setting: combination with 6-MMPR (AM28), MacSynergy II.

“Also recorded” adds a separate entry of the source. Read-outs that look alike come from different tables or passages of the source. A value given as a limit tells only on which side of the number the result lay.

Procedure for DENV 2: Huh7 cells were plated in each well of a 24 well plate (1×10^5/well). Twenty-four hours later, cells were inoculated with DENV 2 or ZIKV at a multiplicity of infection (MOI) of 0.05. Two hours post-inoculation, inoculum was retired and fresh medium containing treatment was added. Columns 1 to 6 were treated with increasing concentrations of 6-MMPR (0, 0.025, 0.05, 0.1, 0.2 and 0.4 μM). Rows A to D were treated with 0, 25, 50 and 100 μM of T-1105. Supernatants were collected after 72 hours post-infection and infectious virions were analyzed by plaque assay as extent of infectious virus production. For FIG. 5, Huh7 cells were inoculated with DENV or ZIKV and treated with different concentrations of T-1105 (0, 3, 9, 27, 51 or 243 μM), T-1106 (0, 6.7, 20, 60, 180 or 540 μM) and T-705 (same concentrations as T-1106) in combination with 0.1 μM AM28 or DMSO. After 72 hours post infection supernatants were collected and analyzed for viral yield by plaque assay.
Procedure for ZIKV: DENV and ZIKV. Huh7 cells were plated in each well of a 24 well plate (1×10^5/well). Twenty-four hours later, cells were inoculated with DENV 2 or ZIKV at a multiplicity of infection (MOI) of 0.05. Two hours post-inoculation, inoculum was retired and fresh medium containing treatment was added. Columns 1 to 6 were treated with increasing concentrations of 6-MMPR (0, 0.025, 0.05, 0.1, 0.2 and 0.4 μM). Rows A to D were treated with 0, 25, 50 and 100 μM of T-1105. Supernatants were collected after 72 hours post-infection and infectious virions were analyzed by plaque assay as extent of infectious virus production.

What is called EC50 is the concentration giving half of the maximal effect. What is called CC50 is the concentration at which the toxic effect on the cells reaches its halfway point. A higher CC50 goes with lower toxicity to the cells. As to `NC(=O)c1ncn([C@@H]2O[C@H](CO)[C@@H](O)[C@H]2O)c1O` [Compound 2b, 1-((2R,3R,4S,5R)-3,4-dihydroxy-5-(hydroxymethyl)tetrahydrofuran-2-yl)-5-hydroxy-1H-imidazole-4-carboxamide, reference compound], the “TTI, tissue culture therapeutic index (CC50/EC50)” value with DENV-2 viral replicon [1] stood at 2.2. For the same compound, in the data set with DENV-2 viral replicon [2], the 50% effective concentration (EC50) stood at 15 ± 7.8 µM. For the same compound, it took 33 ± 12 µM to reach half-maximal cytotoxicity in data set [3] (CC50).
Turning to `NC(=O)c1nccnc1O` [Compound 3a, 3-hydroxypyrazine-2-carboxamide], the results for the EC50 with DENV and with DENV-2 viral replicon [2] were 20 ± 11 µM and 21 ± 0.7 µM, respectively. Besides, the “synergy with 6-MMPR for reduction in DENV replicon replication” value (“synergy with 6-MMPR for reduction” below) is reported as “Stronger synergy” in the data set with DENV replicon (setting [6]) and “synergistic effect” in the data set on DENV replicon (combination with 6-MMPR (AM28), MacSynergy II, listed as T-1105). The “times more active than nucleobase 5a (favipiravir)” value in the data set on DENV-2 viral replicon [1] (DENV replicon) was determined as 5. Further, in the data set with DENV-2 viral replicon [1], the “TTI, tissue culture therapeutic index (CC50/EC50)” value is 32. In the data set on Huh-7 cells, the cellular toxicity result is listed as “absence of cellular toxicity”. Further, in data set [4], the CC50 at 72 h is more than 665 µM. This compound also displayed a cytotoxic concentration (CC50) in [3] of more than 665 µM. The figures for the “synergy/potentiation with 6-MMPR for reduction in ZIKV replication” value in the data set with ZIKV and in the data set with ZIKV (listed as T-1105) were “showed synergy” and “synergistic effect”, respectively. Also, in the data set on DENV 2, the “synergy/potentiation with 6-MMPR for reduction in DENV replication” value is recorded as “synergistic effect”. The “potentiation/synergy with 6-MMPR of anti-DENV activity” value in the data set with DENV 2 is “strongly potentiates”; in the data set with DENV 2 (listed as T-1105), “synergistic effect”.
In the case of `NC(=O)c1nc(F)cnc1O` [Compound 5a, 6-fluoro-3-hydroxypyrazine-2-carboxamide, reference compound], the “synergy with 6-MMPR for reduction” value in the data set with DENV replicon is on record as “synergistic effect”. Besides, the “synergy with 6-MMPR in inhibiting production of infectious coronavirus particles” value in the data set with HCoV-OC43 is listed as “synergistic antiviral effect; also recorded: synergistically increases; also recorded: clear synergistic effect”. Further, the “synergy with 6-MMPR against IAV” value in the data set with IAV is given as “synergistic antiviral effect; also recorded: clear synergy peak”. Also, the “protection of cells from IAV-induced cytopathic effects (CPE)” value with IAV (Huh7 cells, in combination with 6MMPR, listed as favipiravir) was “can protect cells; also recorded: protection of human cells from IAV-induced cell death”. Besides, the “safety of the combination with 6-MMPR” value in data set [5] is “safe”. The midpoint of the response in the data set on DENV-2 viral replicon [2], the EC50, lay at 110 ± 30 µM. Further, the CC50 at 72 h in data set [4] is more than 665 µM. For the same compound, the cytotoxic concentration (CC50) in data set [3] is more than 1000 µM. Moreover, the figures for the “synergy/potentiation with 6-MMPR for reduction in ZIKV replication” value in the data set with ZIKV, in the data set with ZIKV (listed as T-705) and in the data set on ZIKV (listed as favipiravir) were “showed synergy”, “synergistic effect” and “synergistic antiviral effect”, respectively. Also, the “synergy/potentiation with 6-MMPR for reduction in DENV replication” value in the data set with DENV 2 (listed as T-705) is on record as “synergistic effect”; in the data set on DENV 2 (listed as favipiravir), “synergistic antiviral effect”.
As to `Nc1nc(N)c2[nH]cnc2n1` [Compound 4a, 9H-purine-2,6-diamine], the CC50 in data set [3] worked out at 13 ± 2.1 µM.
As to `COc1c(C)c2c(c(O)c1C/C=C(C)/C=C(\C)C(=O)O)C(=O)OC2` [Compound 6, (2E,4E)-6-(4-hydroxy-6-methoxy-7-methyl-3-oxo-1,3-dihydroisobenzofuran-5-yl)-2,4-dimethylhexa-2,4-dienoic acid, reference compound], the “TTI, tissue culture therapeutic index (CC50/EC50)” value with DENV-2 viral replicon [1] is given as 4.7. A half-maximal effect with DENV-2 viral replicon [2] (EC50) was put at 0.3 ± 0.03 µM. This compound also gave a CC50 in data set [3] of 1.4 ± 0.4 µM.
As to `CSc1ncnc2c1ncn2[C@@H]1O[C@H](CO)[C@@H](O)[C@H]1O` [Compound 6-MMPR, (2R,3S,4R,5R)-2-(hydroxymethyl)-5-(6-(methylthio)-9H-purin-9-yl)tetrahydrofuran-3,4-diol], in the data set on DENV replicon (0.01 μM, alone), the “antiviral activity of 6-MMPR alone” value is “lack of antiviral activity”. Also, in the data set with DENV replicon (6-MMPR 0.0025 and 0.005 μM), the “potentiation of nucleobase anti-replicon activity” value is listed as “did not potentiate nucleobase anti-replicon activity”. For the same compound, in the data set on DENV replicon (6-MMPR 0.0025 and 0.005 μM, alone), the “anti-replicon activity of their own” value is reported as “nor did they have anti-replicon activity of their own”.
For `NC(=O)c1nc[nH]n1` [Compound 1a, 1H-1,2,4-triazole-3-carboxamide], in the data set with DENV replicon, the “antiviral activity of nucleobase alone” value is recorded as “no antiviral activity” and the “antiviral (anti-replicon) activity when supplemented with 6-MMPR” value is recorded as “an increase in antiviral activity was observed”. For the same compound, the “TTI, tissue culture therapeutic index (CC50/EC50)” value with DENV-2 viral replicon [1] is reported as 204. Besides, in the data set with DENV-2 viral replicon [2], the EC50 stood at 4.9 ± 1.6 µM. In data set [4], this compound gave a CC50 at 72 h of more than 665 µM. This compound yielded a CC50 in [3] of more than 1000 µM. Besides, the cytotoxicity result in data set [3] (at 1000 μM) is “did not show cytotoxicity”.
Compound `NC(=O)c1ncn([C@@H]2O[C@H](CO)[C@@H](O)[C@H]2O)n1` [Compound 1b, 1-((2R,3R,4S,5R)-3,4-dihydroxy-5-(hydroxymethyl)tetrahydrofuran-2-yl)-1H-1,2,4-triazole-3-carboxamide, reference compound] showed a half-maximal effective concentration (EC50) in the data set with DENV-2 viral replicon [2] of 1.3 ± 0.1 µM.
As to `NC(=O)c1nc[nH]c1O` [Compound 2a, 5-hydroxy-1H-imidazole-4-carboxamide], in the data set on DENV replicon, the “antiviral activity of nucleobase alone” value was “no antiviral activity” and the “antiviral (anti-replicon) activity when supplemented with 6-MMPR” value is given as “an increase in antiviral activity was observed”. Also, the “TTI, tissue culture therapeutic index (CC50/EC50)” value with DENV-2 viral replicon [1] was 9.6. The response in the data set on DENV-2 viral replicon [2] was half-maximal at 2.4 ± 0.1 µM (EC50). In addition, the midpoint of cytotoxicity in [3], the CC50, lay at 23 ± 4.2 µM.
Consider `NC(=O)c1nccn([C@@H]2O[C@H](CO)[C@@H](O)[C@H]2O)c1=O` [Compound 3b, 4-((2R,3R,4S,5R)-3,4-dihydroxy-5-(hydroxymethyl)tetrahydrofurran-2-yl)-3-oxo-3,4-dihydropyrazine-2-carboxamide], for which the EC50 was 60 ± 22 µM in the data set on DENV and 113 ± 11 µM in the data set on DENV-2 viral replicon [2]. The “synergy with 6-MMPR for reduction” value in the data set with DENV replicon (setting [6]) was “did not result in significant synergy”; in the data set with DENV replicon (combination with 6-MMPR (AM28), MacSynergy II, listed as T-1106), “synergistic effect”. In addition, the “TTI, tissue culture therapeutic index (CC50/EC50)” value in the data set on DENV-2 viral replicon [1] is recorded as 8.8. The compound further returned a CC50 in data set [3] of more than 1000 µM. For the same compound, the figures for the “synergy/potentiation with 6-MMPR for reduction in ZIKV replication” value in the data set on ZIKV and in the data set on ZIKV (listed as T-1106) were “did not potentiate” and “does not produce a synergistic effect”, respectively. Moreover, the “synergy/potentiation with 6-MMPR for reduction in DENV replication” value is “almost entirely an additive result” with DENV 2 and “does not produce a synergistic effect” in the data set on DENV 2 (listed as T-1106).

Source of the values: US20220273689A1, “POTENTIATION OF ANTIVIRAL NUCLEOBASES AS RNA VIRUS THERAPY” (REGENTS OF THE UNIVERSITY OF MINNESOTA, priority 2019, published 2022).
